Where a SMILES comes first, the peptide text is derived from it.

Series [1] deals with B16F10-Nex2 murine melanoma cells. The class given is cell-based. The note with it: 12 h.
The test system of the next series is Candida albicans UP10. It is filed as cell-based.
Another series has as its system SKmel-25. The class given is cell-based, human. The protocol: (§1) Murine B16F10-Nex2 melanoma cells (cloned at the Experimental Oncology Unit, Federal University of São Paulo, UNIFESP), and human SKmel28 and SKmel25 human melanoma cell lines originally obtained from the Memorial Sloan Kettering Cancer Center, New York, were cultured at 37°C, under humid atmosphere and 5% CO2, in RPMI-1640 medium with 10 mM N-2-hydroxyethylpiperazine-N2 ethanesulphonic acid (HEPES), 24 mM sodium bicarbonate, 40 mg/L gentamycin, pH 7.2 and 10% FCS.
(§2) Synthetic CDRs, scrambled peptides (controls), and […] of mAb C7/pc42 H2, selected for the highest cytotoxic activity, were diluted from 1 mM to 0.05 mM in RPMI with 10% FCS and incubated with B16F10-Nex2, SKmel28 and SKmel25 cells (5×10^3 cells/well) in 100 µL per well for 12 h at 37°C. Each peptide was tested in triplicate. After 12 h, the cytotoxic activities of the peptides were determined by measuring cell viability by Trypan Blue exclusion.

A further series has as its system SKmel-28. The class given is cell-based, human. The protocol:
as §1, §2

The test system of a further series is HIV-1 IIIB (X4). Briefly: In vitro exogenous HIV-1 infection of PHA-stimulated PBMCs, IIIB strain (p24 assay). The following applies: day 10, p24, mean of 3 determinations. The class given is cell-based.
The next series relates to R5 HIV-1. The class given is cell-based. The following applies: ex vivo, 10 µg/ml, day 10 of culture, p24, mean of 3 determinations.
For the next series, the system named is HIV-1 BaL (R5). The series can be described thus: In vitro exogenous HIV-1 infection of PHA-stimulated PBMCs, BaL strain (p24 assay). It is filed as cell-based. The following applies: day 10, p24, mean of 3 determinations.
A further series relates to HUVEC. The series can be described thus: In vitro Matrigel angiogenesis assay. It is filed as cell-based, human. The following applies: peptides at 1 mM, C7/pc42 H2 at 50 µM; 18 h, 37°C; triplicate wells. Here is the method: Matrigel™ Matrix (B&D Biosciences, Bedford, MA, USA) was thawed on ice, added (10 µL/well) to coat 96-well plates, and allowed to polymerize for 1 h at 37°C. Human umbilical vein endothelial cells (HUVEC) (5×10^3cells/well) were added alone or mixed with mAb C7 CDR peptides in 100 µL of RPMI medium supplemented with 0.2% of FCS in each well. All peptides were used at 1 mM, with the exception of mAb C7/pc42 H2 that was used at 50 µM. The plates were incubated at 37°C for 18 h and images were captured at 8× magnification with a Sony Cyber-shot camera coupled to a light microscope. The number of pro-angiogenic structures (closed rings formed at a given time by endothelial cell sprouting) was counted from 3 different wells, and the average value determined in each system, [45]. The assay was repeated at least three times.

Protocol for Candida albicans UP10: The alanine substituted derivatives (asd), defined according to the position held by the alanine-substituted aminoacid, were tested in the same biological assays to critically establish the functional relevance of each residue [5]. In vitro microbicidal activity of CDR peptides and selected asd against C. albicans UP 10 (clinical isolate from the fungi collection of the University of Parma) and C. albicans NCPF 3153 (National Collection of Pathogenic Fungi, Bristol, UK) were used for the in vitro experiments.
The microbicidal activity of synthetic CDRs against C. albicans strains was preliminarily evaluated by testing 100 µg/mL of each synthetic peptide by colony forming unit (CFU) assays as previously described [5]. Briefly, 10 µL of a distilled water suspension containing ∼5×10^4/mL germinating yeast cells were added to 90 µL of distilled water containing the synthetic peptide to be tested. Yeast suspensions were incubated at 37°C for 6 h. After incubation, the cell suspensions were plated on Sabouraud dextrose agar, incubated at 30°C and observed for CFU determination after 48–72 hours. Each assay was carried out in triplicate. […] EC50 was calculated by nonlinear regression analysis using Graph Pad Prism 4.01 software, San Diego, CA, USA.
Protocol for HIV-1 BaL (R5): (§3) Briefly, for endogenous HIV-1 replication assays peripheral blood mononuclear cells (PBMCs) from R5 HIV-1-infected patients characterized by high viral RNA titers in plasma and cell-associated viremia were cultured in 96-well plates at 1×10^6 cells/mL in RPMI 1640 medium with 10% fetal calf serum (FCS) and 20 U/mL of rIL-2. Exogenous rIL-2 was added every 3–4 days. Cultures were treated with synthetic mAb CDRs and mAb C7/pc42 H1 asd at 10 µg/mL during the time of culture. Virus production on days 5 and 10 was assayed in the supernatants using ultrasensitive Alliance® HIV-1 p24 ELISA kit (Perkin Elmer); p24 Ag in the supernatants of untreated cultures corresponded to 100% of viral production. For exogenous infection assays, PHA-stimulated PBMCs obtained from healthy individuals were infected with BaL (R5) or IIIB (X4) HIV-1 strain at a median tissue culture infective dose (TCID50) of 500 TCID50/ml. After 2 h of adsorption, the cells were washed, suspended at 2×10^5 cells/ml in medium and cultured in 96-well cultures plates. At time zero of infection, synthetic peptides were added to the cultures at 10 µg/ml and were maintained throughout the experiment. All assays were performed in triplicate. Virus production was assayed 10 days after infection in the supernatants of HIV-1-infected PBMCs by p24 assay.
Protocol for HIV-1 IIIB (X4): as §3
Protocol for R5 HIV-1: as §3

By EC50 is commonly meant the concentration that produces a half-maximal response. High values mean weaker potency, low ones greater potency. As to `CC[C@H](C)[C@H](NC(=O)[C@@H](N)Cc1ccc(O)cc1)C(=O)N[C@@H](CO)C(=O)N[C@@H](CS)C(=O)N[C@@H](Cc1ccc(O)cc1)C(=O)N[C@@H](CC(N)=O)C(=O)NCC(=O)N[C@@H](C)C(=O)N[C@H](C(=O)N[C@@H](CO)C(=O)N[C@@H](Cc1ccc(O)cc1)C(=O)N[C@@H](CC(N)=O)C(=O)N[C@@H](CCC(N)=O)C(=O)N[C@@H](CCCCN)C(=O)N[C@@H](Cc1ccccc1)C(=O)N[C@@H](CCCCN)C(=O)O)[C@@H](C)O` [C7/pc42 H2] (H-YISCYNGATSYNQKFK-OH), the EC50 in series [1] was found to be 53.5 µM; in the series with Candida albicans UP10 (UP10, 6 h), 4.19 µM. The “cytotoxicity to human melanoma cell line SKmel-25” value in the series with SKmel-25 is recorded as “equally cytotoxic”. In the series with SKmel-28, the “cytotoxicity to human melanoma cell line SKmel-28” value was “equally cytotoxic”.

Take “WASTRES [C7 L2, synthetic peptide identical to light chain CDR L2 of mouse mAb C7]”: the “Anti-Candida activity (%) at 100 µg/mL” value in the series on Candida albicans UP10 (CDR peptides, 100 µg/mL in distilled water, 37°C, 6 h, CFU after 48–72 h, triplicate, C. albicans UP10) was determined as 49.8%. The “% inhibitory activity (10 µg/ml), exogenous HIV-1 replication, IIIB” value in the series on HIV-1 IIIB (X4) came out at 4%. Moreover, in the series on R5 HIV-1, the “% inhibitory activity (10 µg/ml), endogenous HIV-1 replication” value stood at 38%. Besides, the “% inhibitory activity (10 µg/ml), exogenous HIV-1 replication, BaL” value with HIV-1 BaL (R5) stood at 59%. Besides, the “endothelial cell sprouting on Matrigel” value in the series on HUVEC is “inhibited endothelial cell sprouting”.

For the origin of these results see publication PMC2396520, “Antibody Complementarity-Determining Regions (CDRs) Can Display Differential Antimicrobial, Antiviral and Antitumor Activities” (PLoS ONE, 2008).
